From patent US6468998B1, “Pyrrolidine compounds and medicinal utilization thereof” (Mitsubishi Pharma Corporation, priority 1998, dated 2002)

Experiments:
[1] = tested on: collateral circulation model; test: Promotion of collateral circulation (femoral artery ligation, ADP-added platelet suspension, leg blood flow); format: in vivo, rat; conditions: for Change in blood flow, control side / Change in blood flow, femoral artery ligation side: 1 hour, after ADP-added platelet suspension
Protocol: Promotion of Collateral Circulation
A collateral circulation model was prepared by rat femoral artery ligation, and a test drug was orally administered 7 days later. At 1 hour from the test drug administration, ADP-added platelet suspension (200 μM) was administered under anesthesia into the femoral artery (1 mL/kg), and changes in the leg blood flow were measured. In the same manner as above, a comparative experiment was performed using cilostazol as a control compound.
(§1) In the Table, the values are mean±standard error (n=6).

[2] = tested on: rat intermittent claudication model; test: Effect on rat intermittent claudication model (femoral artery ligation, treadmill walking distance); format: in vivo; conditions: for walking distance 8 days after administration (Δm): change vs value before ligation, mean±SE
Description: Effect on Rat Intermittent Claudication Model
Rat was anesthetized and the right thigh was opened to expose femoral artery, which was ligated with a silk thread at a position nearest possible to the heart (upstream). In addition, a position about 1 cm from the ligation site to the periphery was ligated with a silk thread, making two ligature sites. Starting from the next day of preparation of a model to day 8 therefrom, a drug was orally administered twice a day for 8 days. However, the drug was orally administered only in the evening of the first day of administration and only in the morning of the final administration day. The walking distance was measured one day before model preparation (initial value), day 1, day 5 and day 8 with a treadmill apparatus. Using a gait test table without an angle of inclination, the conveyor advance speed was first set to 15 m/min, and the speed was increased every 5 min by 5 m/min until the animal failed walking three times, based on which the walking distance of the rat was measured. In the same manner as above, a comparative experiment was performed using sarpogrelate and cilostazol, respectively as a control compound.
In the Table, the values are mean±standard error (n=8 but n=6 only for sarpogrelate group).

[3] = Effect on heart rate and blood pressure; format: in vivo, Wistar rat; conditions: for Change of blood pressure / Change of heart rate: 1 hour, no anesthesia or restriction
Protocol: Effect on Heart Rate and Blood Pressure
A catheter was placed in the femoral artery of Wistar rat, and the blood pressure and heart rate were invasively monitored under no anesthesia or restriction. At 1 hour from the oral administration of the test drug, blood pressure and heart rate were taken. In the same manner as above, a comparative experiment was performed using cilostazol as a control compound.
In the Table, the values are mean±standard error (n=4).

[4] = tested on: lauric acid-induced peripheral arterial obstruction model; test: Rat lauric acid-induced peripheral arterial obstruction model (therapeutic effect); format: in vivo, Wistar rats; conditions: for Lesion score 3 days later / Lesion score 5 days later / Lesion score 7 days later / Lesion score 1 day later: score 0 normal to 6; for peripheral circulatory disturbance (in words): from one day after the lauric acid injection
Protocol: (§2) Effect on Rat Lauric Acid-induced Peripheral Arterial Obstruction Model (Therapeutic Effect) Under anesthesia, lauric acid (0.75 mg/0.15 mL) was injected into the right femoral artery of Wistar rats (6-8 weeks of age). A drug was administered one day after the lauric acid injection. The drug was orally administered twice a day for 7 days. In the same manner as above, a comparative experiment was performed using sarpogrelate and cilostazol as a control compound. In the Table, the values are mean±standard error (n=11).

[5] = tested on: platelet rich plasma (PRP); test: Platelet aggregation suppressive action (collagen + 5-HT, platelet rich plasma); format: cell-based, Japanese white rabbit; conditions: Oryctolagus cuniculus, rabbit PRP, collagen + 3 μM 5-HT
Protocol: Platelet Aggregation Suppressive Action
Preparation of platelet rich plasma and a platelet aggregation test were performed according to the method of Born, G. V. R. et al. [Journal of Physiology, Vol. 168, p. 178 (1963)] as in the following. Blood was drawn from the carotid of male Japanese white rabbit with local anesthesia with xylocaine, using a syringe previously added with 3.8% sodium citrate in a 1/10 amount of the blood. This blood was centrifuged at 1000 round/min for 10 min at room temperature to give a platelet rich plasma (PRP) supernatant. This supernatant was further centrifuged at 3000 round/min for 10 min to give a platelet poor plasma (PPP) supernatant. Taking the measurement values of PRP and PPP as 0% aggregation and 100% aggregation, respectively, the platelet aggregation rate (%) was calculated. A test compound (3 μl) was added to 300 μl of PRP and the mixture was incubated at 37° C. for 5 min. Thereto were added, as aggregation inducing substances, collagen at a concentration prohibitive on aggregation by its single administration, and the final concentration of 3 μM of 5-HT, and the aggregation reaction was recorded for 7 min. The effect of the test compound was determined as percent suppression relative to the control group, using the maximum aggregation as an index. The 50% inhibition concentration (IC50) of the test compound was calculated by the nonlinear regression. In the same manner as above, a comparative experiment was conducted for the use of sarpogrelate and cilostazol, respectively as a control compound.

[6] = tested on: lauric acid-induced peripheral arterial obstruction model; test: Lauric acid-induced peripheral arterial obstruction model (preventive effect); format: in vivo, Wistar rats; conditions: for Lesion score 1 day later / Lesion score 3 days later / Lesion score 5 days later / Lesion score 7 days later: first dose 1 h before lauric acid, score 0 normal to 6; for peripheral circulatory disturbance (in words): prior to the lauric acid injection
Protocol: as §2, with “on” for “on Rat”, “Model (Preventive” for “Model (Therapeutic”, “administered 1 hour before” for “administered one day after”, “for 8” for “for 7”, “using” for “using sarpogrelate and”, “error (n=12).” for “error (n=11).”

[7] = molecular target: T1, 5-HT2 receptor (Rattus norvegicus, UniProt P14842); test: Affinity for 5-HT2 receptor (binding with 3H-ketanserine); conditions: rat cerebral cortex crude synapse membrane, 37° C. 20 min
T1 construct: A crude synapse membrane was prepared from a freeze-dried rat cerebral cortex; from tissue; host or cells: rat cerebral cortex (crude synaptic membrane)
T1 sequence (P14842 whole entry): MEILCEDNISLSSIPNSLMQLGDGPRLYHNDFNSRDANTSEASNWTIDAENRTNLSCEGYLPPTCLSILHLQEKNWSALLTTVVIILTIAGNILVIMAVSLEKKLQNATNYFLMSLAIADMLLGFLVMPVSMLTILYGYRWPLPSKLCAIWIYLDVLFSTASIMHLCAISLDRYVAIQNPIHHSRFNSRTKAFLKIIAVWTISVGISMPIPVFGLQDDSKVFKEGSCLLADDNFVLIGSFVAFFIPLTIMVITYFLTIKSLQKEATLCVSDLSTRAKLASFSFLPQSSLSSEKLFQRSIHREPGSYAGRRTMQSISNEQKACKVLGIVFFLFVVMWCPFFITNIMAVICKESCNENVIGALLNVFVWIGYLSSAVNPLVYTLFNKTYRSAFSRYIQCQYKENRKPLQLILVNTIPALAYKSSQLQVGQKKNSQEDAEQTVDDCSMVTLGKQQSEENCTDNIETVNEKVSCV
Protocol: Affinity for 5-HT2 Receptor (Binding with ^3H-ketanserine)
Preparation of a crude synapse membrane and a binding test were performed according to the method of Leysen J. E. et al. [Molecular Pharmacology, Vol. 21, p. 301 (1982)]. A crude synapse membrane was prepared from a freeze-dried rat cerebral cortex, and the membrane specimen and ^3H-ketanserine were incubated in the presence of a test compound at 37° C. for 20 min. After the completion of the reaction, the reaction mixture was immediately filtered by suction on a Whatmann GF/B filter (trademark), and the radioactivity on the filter was measured on a liquid scintillation counter. The amount of non-specific binding was measured in the presence of 10 μM mianserin. The 50% inhibition concentration (IC50) of the test compound was calculated by the nonlinear regression. In the same manner as above, a comparative test was performed using sarpogrelate as a control compound.

[8] = tested on: erythrocytes; test: Improvement effect of erythrocyte deformation (Nuclepore membrane filter method); format: in vivo, SHRSP (stroke prone spontaneously hypertensive rat); conditions: SHRSP; for Volume of erythrocytes passed: 5 μm filter
Protocol: Improvement Effect of Erythrocyte Deformation
Blood was drawn under anesthesia from SHRSP (stroke prone spontaneously hypertensive rat) loaded with 1% saline for 3 weeks, and the time necessary for 0.5 mL of blood to pass through a filter (pore size 5 μm, Nuclepore) was measured by the Nuclepore membrane filter method of Reid et al., based on which the volume (mL/min) of the erythrocytes passed was calculated. The volume of the erythrocytes passed was taken as an index of erythrocyte deformation. A drug was orally administered 1 hour before drawing the blood. In the same manner as above, a comparative experiment was performed using sarpogrelate as a control compound.
as §1

[9] = control compounds, 100 mg/kg per Table 2
[10] = 100 mg/kg oral twice a day from one day after lauric acid
[11] = 10 mg/kg oral twice a day from one day after lauric acid
[12] = 30 mg/kg oral twice a day from one day after lauric acid

SMILES: O=C1CCc2cc(OCCCCc3nnnn3C3CCCCC3)ccc2N1 [Cilostazol, reference compound]
- decrease in leg blood flow caused by ADP-added platelet suspension (in words) ([1]; 100 mg/kg): suppressed a decrease in the blood flow on the ligation side only slightly
- Change in blood flow, control side ([1]; 100 mg/kg oral): −27.0 ± 5.0 %
- Change in blood flow, femoral artery ligation side ([1]; 100 mg/kg oral): −63.3 ± 2.4 %
- walking distance 8 days after administration (Δm) ([2]; 100 mg/kg oral twice a day): −149.8 ± 22.7 m
- walking distance at day 8 of ligation (in words) [2, 9]: increased the walking distance but the increase was not significant
- Change of blood pressure ([3]; 100 mg/kg oral): 1.3 ± 1.3 mmHg
- Change of heart rate ([3]; 100 mg/kg oral): 43.8 ± 6.7 beats/min
- influence on heart rate (in words) ([3]; 300 mg/kg as printed): increased the heart rate
- Lesion score 3 days later [4, 10]: 1.5 ± 0.3
- Lesion score 5 days later [4, 10]: 1.4 ± 0.4
- Lesion score 7 days later [4, 10]: 1.3 ± 0.4
- peripheral circulatory disturbance (in words) ([4]; 100 mg/kg): significantly reduced the peripheral circulatory disturbance
- IC50 [5]: 1380 nM
- Lesion score 1 day later ([6]; 100 mg/kg oral twice a day): 1.8 ± 0.1
- Lesion score 3 days later ([6]; 100 mg/kg oral twice a day): 2.2 ± 0.2
- Lesion score 5 days later ([6]; 100 mg/kg oral twice a day): 1.8 ± 0.4
- Lesion score 7 days later ([6]; 100 mg/kg oral twice a day): 2.2 ± 0.5
- peripheral circulatory disturbance (in words) ([6]; 100 mg/kg): significantly reduced the peripheral circulatory disturbance

SMILES: O=C(N[C@H]1CCN(CCc2ccc(F)cc2)C1)C12CC3CC(CC(C3)C1)C2 [Example 2, (S)-N-(1-(2-(4-fluorophenyl)ethyl)pyrrolidin-3-yl)-1-adamantanecarboxamide]
- decrease in leg blood flow caused by ADP-added platelet suspension (in words) ([1]; 10 mg/kg oral): suppressed the decrease in the blood flow in the legs on both sides
- Change in blood flow, control side ([1]; 10 mg/kg oral): −10.1 ± 1.4 %
- Change in blood flow, femoral artery ligation side ([1]; 10 mg/kg oral): −11.8 ± 1.2 %
- IC50 [7]: 0.18 nM
- walking distance 8 days after administration (Δm) ([2]; 3 mg/kg oral twice a day): −94.3 ± 36.1 m
- walking distance at day 8 of ligation (in words) ([2]; 3 mg/kg, 10 mg/kg and 30 mg/kg, b.i.d.): significantly increased
- walking distance 8 days after administration (Δm) ([2]; 10 mg/kg oral twice a day): −89.9 ± 22.2 m
- walking distance 8 days after administration (Δm) ([2]; 30 mg/kg oral twice a day): −88.6 ± 25.0 m
- influence on heart rate or blood pressure (in words) ([3]; 30 mg/kg and 100 mg/kg): did not influence the heart rate or blood pressure
- Change of blood pressure ([3]; 30 mg/kg oral): 0.0 ± 1.5 mmHg
- Change of heart rate ([3]; 30 mg/kg oral): −1.3 ± 4.7 beats/min
- Change of blood pressure ([3]; 100 mg/kg oral): −2.8 ± 0.8 mmHg
- Change of heart rate ([3]; 100 mg/kg oral): −4.5 ± 5.2 beats/min
- Lesion score 1 day later [4, 11]: 2.0 ± 0.0
- Lesion score 3 days later [4, 11]: 2.2 ± 0.1
- Lesion score 5 days later [4, 11]: 2.2 ± 0.4
- Lesion score 7 days later [4, 11]: 2.2 ± 0.4
- Lesion score 1 day later [4, 12]: 1.8 ± 0.1
- Lesion score 3 days later [4, 12]: 1.7 ± 0.2
- Lesion score 5 days later [4, 12]: 1.3 ± 0.3
- Lesion score 7 days later [4, 12]: 0.9 ± 0.5
- peripheral circulatory disturbance (in words) ([4]; 30 mg/kg): significantly reduced the peripheral circulatory disturbance
- IC50 [5]: 1.9 nM
- peripheral circulatory disturbance (in words) ([6]; 10 mg/kg and 30 mg/kg): significantly reduced the peripheral circulatory disturbance
- Lesion score 1 day later ([6]; 10 mg/kg oral twice a day): 1.8 ± 0.1
- Lesion score 3 days later ([6]; 10 mg/kg oral twice a day): 2.1 ± 0.2
- Lesion score 5 days later ([6]; 10 mg/kg oral twice a day): 1.8 ± 0.3
- Lesion score 7 days later ([6]; 10 mg/kg oral twice a day): 1.9 ± 0.5
- Lesion score 1 day later ([6]; 30 mg/kg oral twice a day): 1.8 ± 0.2
- Lesion score 3 days later ([6]; 30 mg/kg oral twice a day): 2.0 ± 0.3
- Lesion score 5 days later ([6]; 30 mg/kg oral twice a day): 1.5 ± 0.4
- Lesion score 7 days later ([6]; 30 mg/kg oral twice a day): 1.2 ± 0.5
- volume of the erythrocyte passed, % of the vehicle group ([8]; 10 mg/kg): 133%
- Volume of erythrocytes passed ([8]; 10 mg/kg oral 1 hour before drawing blood): 1.05 ± 0.13 mL/min
- volume of the erythrocyte passed, % of the vehicle group ([8]; 30 mg/kg): 186%
- Volume of erythrocytes passed ([8]; 30 mg/kg oral 1 hour before drawing blood): 1.47 ± 0.19 mL/min

SMILES: COc1cccc(CCc2ccccc2OCC(CN(C)C)OC(=O)CCC(=O)O)c1 (stereo not shown) [Sarpogrelate, reference compound]
- IC50 [7]: 27 nM
- walking distance 8 days after administration (Δm) ([2]; 100 mg/kg oral twice a day): −151.3 ± 35.4 m
- walking distance at day 8 of ligation (in words) [2, 9]: increased the walking distance but the increase was not significant
- Lesion score 1 day later [4, 10]: 1.9 ± 0.2
- Lesion score 3 days later [4, 10]: 2.3 ± 0.3
- Lesion score 5 days later [4, 10]: 2.1 ± 0.5
- Lesion score 7 days later [4, 10]: 2.4 ± 0.6
- IC50 [5]: 260 nM
- volume of the erythrocyte passed, % of the vehicle group ([8]; 100 mg/kg): 128%
- Volume of erythrocytes passed ([8]; 100 mg/kg oral 1 hour before drawing blood): 1.01 ± 0.10 mL/min
